The values below come from patent publication US20020013342A1, “Treatment of central nervous system disorders with selective estrogen receptor modulators” (priority 1997, published 2002).

The nature of data set [1]: HPLC/UV analysis of liver and cerebral cortex homogenates for parent drug, primary metabolite and glucuronide conjugates. Type of data set: in vivo, Female Fischer 344 rats. The following applies: for peaks corresponding to the glucuronide conjugates in the HPLC chromatogram of the cerebral cortex homogenate: eight hours after dosing. The procedure:
A liver and cerebral cortex homogenate were analyzed by HPLC and UV detection at 315 nm to determine if the radioactivity in these tissues was actually due to the drug initially dosed, to the primary metabolite, 6-hydroxy-2-(4-hydroxyphenyl)-3-[4-(piperidinoethoxy)phenoxy]-benzo[b]thiophene, or there glucuronide conjugates. The cerebral cortex sample was obtained eight hours after dosing and the liver samples were collected at four and eight hours after dosing. The proteins in the homogenate were precipitated with acetonitrile and the supernate was evaporated to dryness. The residue was reconstituted in mobile phase and injected onto a SynChropak SCD-100 column with the initial mobile phase composed of […]. (v/v/v). The retention times of the peaks from the homogenate were compared with those obtained from authentic samples of 6-hydroxy-2-(4-methoxyphenyl)-3-[4-(piperidinoethoxy)phenoxy]benzo[b]thiophene and its metabolite, 6-hydroxy-2-(4-hydroxyphenyl)-3-[4-(piperidinoethoxy)phenoxy]benzo [b]-thiophene.

Data set [2] relates to gene expression in the hippocampus. Briefly: Differential mRNA display in hippocampi of ovariectomized rats after five weeks of daily treatment. Type of data set: in vivo, female Sprague-Dawley rats. Particulars: 1 mg/kg daily subcutaneous, comparator estradiol benzoate 0.03 mg/kg. The procedure:
A commonly employed model of estrogen depletion is the ovariectomized adult rat. An experiment was conducted in ovariectomized rats using differential mRNA display to determine the similarities and/or differences between a representative compound of the present invention, 6-hydroxy-2-(4-methoxyphenyl)-3-[4-(2-piperidinoethoxy)phenoxy]-benzo[b]thiophene, and estrogen at affecting gene expression in various brain regions. Specifically, female Sprague-Dawley rats, 6 weeks of age, were ovariectomized by the vendor. Following one week of acclimation to the laboratory facility, daily subcutaneous injections of estradiol benzoate (0.03 mg/kg) or 6-hydroxy-2-(4-methoxyphenyl)-3-[4-(2-piperidinoethoxy)phenoxy]-benzo[b]thiophene (1 mg/kg), or vehicle (control) were initiated.
After five weeks of daily treatment, animals were sacrificed and their brains removed and hippocampi collected by microdissection. The hippocampi were fast frozen in liquid nitrogen and stored at −70_C. Total RNA was prepared from pooled tissue from the appropriate treatment and control groups and reverse transcribed using a 3′ oligonucleotide primer which selected for specific mRNA (poly-A+) populations. Polymerase chain reactions (PCR) were carried out in a cocktail consisting of: random 5′ oligonucleotides (10 base-pairs in length; total of 150), reaction buffer, Taq polymerase, and a ^32PdTCP. […]

Data set [3] in a line: Distribution of radioactivity among tissues after a single oral dose of 14C-labeled compound in the female F344 rat. Type of data set: in vivo, Female Fischer 344 rats. The procedure: Female Fischer 344 rats (approximately twelve weeks old) were given a single oral gavage dose of 5 mg/kg (30 mCi/kg) of ^14C-labeled 6-hydroxy-2-(4-methoxyphenyl)-3-[4-(piperidinoethoxy)phenoxy]benzo[b]thiophene hydrochloride in 50% PEG 300/50% water. Blood and tissues were collected from three rats at each time point: just prior to dosing and at 2, 4, 8, and 24 hours after dosing. At each time point, the animals were sacrificed, blood samples were collected and the heparinized blood was centrifuged and the plasma obtained. Following collection of the bloood sample in each case, the animals were perfused with 0.9% saline solution and the brain, pituitary, femurs, ovaries, uterus and liver were surgically removed and placed in separate containers. […]
The radioactivity of each sample was determined by liquid scintillation spectrometry. Plasma was counted directly, while the other tissues were either homogenized, digested, or oxidized prior to liquid scintillation counting. […]
Samples were oxidized on a Packard Model307 Oxidizer and the resulting ^14CO2 trapped for liquid scintillation counting. The radioactivity in each tissue sample was converted to nanogram equivalents per gram of tissue (specific activity=16.3 dpm/ng). The 0-24 hour area under the curve (AUC0-24 hr) was calculated for each sample.

Each structure is given as a SMILES string. Structures can show the parent of a compound that is named as a salt.

Broadly, the melting point is the temperature of the solid-liquid transition. For the compound `COc1ccc(-c2sc3cc(OC)ccc3c2Oc2ccc(OCCN3CCCCC3)cc2)cc1` (as salt: hydrochloride) [Example 2, [6-methoxy-3-[4-[2-(1-piperidinyl)ethoxy]-phenoxy]-2-(4-methoxyphenyl)]benzo[b]thiophene hydrochloride salt], the melting point lay in the range of 216 to 220 °C. Still for that read-out and setting: under `COc1ccc(-c2sc3cc(OC)ccc3c2Oc2ccc(OCCN3CCCCCC3)cc2)cc1` (as salt: hydrochloride) [Example 4, [6-Methoxy-3-[4-[2-(1-hexamethyleneimino)ethoxy]phenoxy]-2-(4-methoxyphenyl)]benzo[b]thiophene Hydrochloride] stands 189 to 192 °C; under `CCN(CC)CCOc1ccc(Oc2c(-c3ccc(OC)cc3)sc3cc(OC)ccc23)cc1` (as salt: hydrochloride) [Example 5, [6-Methoxy-3-[4-[2-(1-N,N-diethylamino)ethoxy]phenoxy]-2-(4-methoxyphenyl)]benzo[b]thiophene Hydrochloride], 196 to 198 °C; under `COc1ccc(-c2sc3cc(OC)ccc3c2Oc2ccc(OCCN3CCOCC3)cc2)cc1` (as salt: hydrochloride) [Example 6, [6-Methoxy-3-[4-[2-(morpholino)ethoxy]-phenoxy]-2-(4-methoxyphenyl)]benzo[b]thiophene Hydrochloride], 208 to 211 °C. On to `Oc1ccc(-c2sc3cc(O)ccc3c2Oc2ccc(OCCN3CCOCC3)cc2)cc1` (as salt: hydrochloride) [Example 13, [6-Hydroxy-3-[4-[2-(morpholino)ethoxy]-phenoxy]-2-(4-hydroxyphenyl)]benzo[b]thiophene Hydrochloride], for which the melting point is 157 to 162 °C. In turn, `COc1ccc2c(Oc3ccc(OCCN4CCCCC4)cc3)c(-c3ccc(O)cc3)sc2c1` (as salt: hydrochloride) [Example 17, [6-methoxy-3-[4-[2-(1-piperidinyl)ethoxy]-phenoxy]-2-(4-hydroxyphenyl)]benzo[b]thiophene Hydrochloride] yielded a melting point of 215 to 217 °C. On the same count and under the same terms, the same measure for `COc1ccc(-c2sc3cc(OC)ccc3c2Oc2ccc(OCCN3CCCCC3)cc2)cc1` (as salt: oxalate) [Example 1, [6-methoxy-3-[4-[2-(1-piperidinyl)ethoxy]-phenoxy]-2-(4-methoxyphenyl)]benzo[b]thiophene Oxalate Salt]: 197 to 200 °C (dec.); for `COc1ccc(-c2sc3cc(OC)ccc3c2Oc2ccc(OCCN3CCCC3)cc2)cc1` [Example 3, [6-Methoxy-3-[4-[2-(1-pyrolodinyl)ethoxy]-phenoxy]-2-(4-methoxyphenyl)]benzo[b]thiophene]: 95 to 98 °C.

For `Oc1ccc(-c2sc3cc(O)ccc3c2Oc2ccc(OCCN3CCCCC3)cc2)cc1` [Example 7, [6-Hydroxy-3-[4-[2-(1-piperidinyl)ethoxy]-phenoxy]-2-(4-hydroxyphenyl)]benzo[b]thiophene], the “peaks corresponding to the glucuronide conjugates in the HPLC chromatogram of the cerebral cortex homogenate” value in data set [1] was “not observed”. Compound `Oc1ccc(-c2sc3cc(O)ccc3c2Oc2ccc(OCCN3CCCC3)cc2)cc1` [Example 10, [6-Hydroxy-3-[4-[2-(1-pyrolidinyl)ethoxy]-phenoxy]-2-(4-hydroxyphenyl)]benzo[b]thiophene] returned a melting point of 99 to 113 °C. On the same count and under the same terms, the same measure for `Oc1ccc(-c2sc3cc(O)ccc3c2Oc2ccc(OCCN3CCCCCC3)cc2)cc1` [Example 11, [6-Hydroxy-3-[4-[2-(1-hexamethyleneimino)ethoxy]phenoxy]-2-(4-hydroxyphenyl)]benzo[b]thiophene]: 125 to 130 °C; for `CCN(CC)CCOc1ccc(Oc2c(-c3ccc(O)cc3)sc3cc(O)ccc23)cc1` [Example 12, [6-Hydroxy-3-[4-[2-(1-N,N-diethylamino)ethoxy]phenoxy]-2-(4-hydroxyphenyl)]benzo[b]thiophene]: 137 to 141 °C. As to `COc1ccc(-c2sc3cc(O)ccc3c2Oc2ccc(OCCN3CCCCC3)cc2)cc1` [Example 14, [6-Hydroxy-3-[4-[2-(1-piperidinyl)ethoxy]-phenoxy]-2-(4-methoxyphenyl)]benzo[b]thiophene], the “mRNA display pattern in rat hippocampus compared with that observed for estrogen” value in data set [2] was “parallel pattern of gene activation or inactivation”. For `COc1ccc(-c2sc3cc(O)ccc3c2Oc2ccc(OCCN3CCCCC3)cc2)cc1` [Example 15, [6-Hydroxy-3-[4-[2-(1-piperidinyl)ethoxy]-phenoxy]-2-(4-methoxyphenyl)]benzo[b]thiophene Hydrochloride Salt], the “time after dosing at which peak levels of radioactive material were reached” value in data set [3] (all tissues with the exception of the liver) was determined as 8 h; in data set [3] (liver) it was 4 h. Moreover, the “peaks corresponding to the glucuronide conjugates in the HPLC chromatogram of the cerebral cortex homogenate” value in data set [1] is “not observed”. For the same compound, in data set [1] (liver samples collected at four and eight hours after dosing), the “peaks in the HPLC chromatogram of the liver homogenates” value was “peaks whose retention times corresponded to the parent compound and its glucuronide conjugate”.

Compound `COc1ccc2c(Oc3ccc(OCCN4CCCCC4)cc3)c(-c3ccc(O)cc3)sc2c1` [Example 16, [6-methoxy-3-[4-[2-(1-piperidinyl)ethoxy]phenoxy]-2-(4-hydroxyphenyl)]benzo[b]thiophene] displayed a melting point of 147 to 150 °C.
